The structures appear in SMILES notation.

The test system of test [1] is CTTTATTATTTT (AT-rich) DNA duplex (SEQ ID NO: 2). Kind of test: SPA direct binding assay, A/T-rich indicator duplex. The source says: This technology can be applied to studies of ligand binding as disclosed herein. Example 13, below, describes the use of the assay in a high throughput screening method, using the SPA detection system. In this example, the first oligonucleotide is labeled with biotin, and is then tightly bound to streptavidin-coated SPA beads via the strong biotin/streptavidin interaction. These beads are impregnated with scintillant. The second oligonucleotide is labeled with a weak β-emitter, such as ^3H or ^33P. The radioactive second oligonucleotide is mixed with a solution of the beads under conditions at which the first and second oligonucleotides exist primarily as single strands, as described above. The signal will thus be low, as the oligonucleotides are non-hybridized. When ligand is added, the duplex form is stabilized, and the increased proximity of the radioactive isotope (e.g., ^3H, ^33P) in the second oligonucleotide causes the bead to which the first oligonucleotide is bound to scintillate. A signal thus indicates the presence of an effective binding ligand molecule; test sequences giving higher signals indicate the relative preference for different sequences.
The data in Table II compare raw signal counts from SPA assays using three different oligonucleotides and three concentrations (0, 100, and 500 nM) of the DNA binding drug distamycin. The oligonucleotides used were G/C-rich (CCGCGCC; SEQ ID NO: 6), A/T-rich (CTTTATTATTTT; SEQ ID NO: 2), or mixed sequence (GCGGTATTT; SEQ ID NO: 12) DNA duplexes. One strand of the duplex was synthesized with a 5′-biotin label, the other strand was labeled with ^33P, as described in Example 13.
Indicator oligonucleotides as shown in Table 1 were used in this assay, as shown in Table II and FIGS. 4A-E. One strand of each duplex was labeled with biotin at the 5′-end, and the complementary strand was 3′-labeled with ^33P. The two complementary strands were incubated with streptavidin-coated SPA beads (Amersham, Arlington Heights, Ill.) at room temperature in a buffer containing 20 mM HEPES, pH 7.5, 0.1 mM EDTA, and 20 mM NaCl. In the absence of ligand, and under these conditions, the oligonucleotides exist in single-stranded conformation. As a result, the oligonucleotide containing the radioactive label is not in close proximity to the SPA bead, and the light given off by the beads is low, i.e., at background. As a duplex-stabilizing ligand is added, the radioactive ^33P is brought into close proximity to the SPA bead, and the light emitted from the SPA bead increases. Accordingly, each of five known DNA-binding compounds was added in increasing concentrations, and the effect on scintillation count was observed, giving the results shown in FIGS. 4A-E.

Test [2] relates to G/C rich sequence 5′-CGCGCC-3′ (SEQ ID NO: 7) F/Q indicator pair. Kind of test: Fluorescence quenching direct binding assay, G/C rich DNA. The note with it: change in fluorescence similar to single-stranded controls. The procedure: The specific examples described in this section employ fluorescence quenching as the detection system. In these examples, because conditions are adjusted to maintain the oligonucleotides in single-stranded form in the absence of the ligand, the assay starts with the system at a high or maximum level of fluorescence, and fluorescence generally decreases, depending on binding affinity, as the ligand is added.
In the Figure legends, RNA oligonucleotides are denoted by an “r” at the beginning of the sequence, and single stranded controls by “ss” at the end of the sequence. These single stranded sequence, are used alone in control experiments, which thus employ only an “F” strand and no complementary quenching strand. Any quenching of fluorescence that is not due to hybridization can thus be acounted for. Maximum quenching expected on complete hybridization of these oligonucleotides is 85-90%; therefore some signal remains after complete hybridization. […]
According to the general method described above, increasing amounts of netropsin or actinomycin, respectively, were added to mixtures of selected F/Q indicator oligonucleotide pairs, whose sequences are shown in the legends of FIGS. 1 and 3. […] The Figures show the level of fluorescence observed, relative to a control having no added drug, for each indicator pair (or single strand) as the level of added drug was increased. […]

For the compound `Cn1cc(NC(=O)c2cc(NC(=O)c3cc(NC=O)cn3C)cn2C)cc1C(=O)NCCC(=N)N` [Distamycin, distamycin], the CPM in test [1] (100 nM Distamycin, 10 mM Na+) worked out at 2218 CPM; in test [1] (100 nM Distamycin, 50 mM Na+), 2448 CPM; in test [1] (500 nM Distamycin, 10 mM Na+), 3332 CPM; in test [1] (500 nM Distamycin, 50 mM Na+) it was 3352 CPM.

Consider `Cn1cc(NC(=O)c2cc(NC(=O)CN=C(N)N)cn2C)cc1C(=O)NCCC(=N)N` [Netropsin, netropsin], for which, in test [2], the “binding (decrease in fluorescence, FIG. 3A)” value is listed as “does not bind well”.

For the origin of these results see US6355428B1, “Nucleic acid ligand interaction assays” (Genelabs Technologies, Inc., priority 1998, dated 2002).
